Patent EP4660190A1, “PHARMACEUTICALLY ACCEPTABLE SALT OF COMPOUND AND PREPARATION METHOD THEREFOR” (Jiangsu Chia Tai Fenghai Pharmaceutical Co., Ltd., priority 2023, dated 2024)
Read-outs that look alike come from different tables or passages of the source. Each block holds one molecule with its values, some of them ahead of it.

Experiments:
[1] = tested on: rat spinal cord injury model; test: Rat spinal cord injury model, pathological changes; conditions: 180 mg/kg single iv; spinal cord histopathology
[2] = tested on: rat spinal cord injury model; test: Rat spinal cord injury model, BBB locomotor scores; format: in vivo, Male SD rats; conditions: 180 mg/kg single iv, mean±SD
Text: The scoring method is as follows: [table]

[3] = tested on: rat spinal cord injury model; test: Rat spinal cord injury model, Neurofilament 200 (NF200) expression; format: in vivo, Male SD rats; conditions: 180 mg/kg single iv, mean±SD, n=6
[4] = tested on: MPTP-induced Parkinson's disease model mice; test: MPTP-induced mouse Parkinson's disease model, pole test; format: in vivo, C57 mice; conditions: mean ± SD
[5] = tested on: MPTP-induced Parkinson's disease model mice; test: MPTP-induced mouse Parkinson's disease model, grip strength test; conditions: positive control 20 mg/kg group; Before Modeling; mean ± SD
[6] = tested on: MPTP-induced Parkinson's disease model mice; test: MPTP-induced mouse Parkinson's disease model, striatal dopamine (DOPA) detection; format: in vivo, C57 mice; conditions: striatum; positive control 20 mg/kg daily, four weeks; mean ± SD
[7] = tested on: MPTP-induced Parkinson's disease model mice; test: MPTP-induced mouse Parkinson's disease model, TH-positive fiber content in the striatum; format: in vivo, C57 mice; conditions: positive control 20 mg/kg daily, four weeks, mean ± SD
[8] = tested on: MPTP-induced Parkinson's disease model mice; test: MPTP-induced mouse Parkinson's disease model, TH-positive cell counts in the substantia nigra pars compacta; format: in vivo, C57 mice; conditions: positive control 20 mg/kg daily, four weeks, mean ± SD
[9] = tested on: TDP-43-A315T transgenic mice of ALS model; test: TDP-43-A315T ALS mice, rotarod test; format: in vivo; conditions: 25 mg/kg p.o., Mean±SEM
[10] = tested on: TDP-43-A315T transgenic mice of ALS model; test: TDP-43-A315T ALS mice, muscle tone test; format: in vivo; conditions: 25 mg/kg p.o., Mean±SEM

Molecule: C[C@H]1C[C@@H]2[C@H]([C@@H](O)C[C@@]3(C)[C@H]2CC[C@]3(O)C(=O)COC(=O)CCC(=O)O)[C@@]2(C)C=CC(=O)C=C12 [methylprednisolone succinate]
cases showing a reduction in lesions [1]: 3 out of 6
BBB Locomotor Scores ([2]; 3 d after dosing): 0.1± 0.3
BBB Locomotor Scores ([2]; 7 d after dosing): 2.8± 1.9
BBB Locomotor Scores ([2]; 14 d after dosing): 5.7±4.5
BBB Locomotor Scores ([2]; 28 d after dosing): 7.9±3.4
BBB Locomotor Scores ([2]; Before dosing): 0± 0
Positive Count (number per field of view) [3]: 22.2± 6.3 number per field of view

Molecule: (Z)-3-(1-hydroxybutylidene)benzofuran-2-one piperazine salt [Example 7]
Appearance (0 h): Light yellow solid
Purity (0 h): 99.59%
Appearance (High Humidity 75%, 10 d): Light yellow solid
Purity (High Humidity 75%, 10 d): 99.66%
Appearance (High Humidity 92.5%, 10 d): Light yellow solid
Purity (High Humidity 92.5%, 10 d): 99.54%
Appearance (High temperature 40°C, 10 d): Light yellow solid
Purity (High temperature 40°C, 10 d): 99.67%
Appearance (High temperature 60°C, 10 d): Light yellow solid
Purity (High temperature 60°C, 10 d): 99.72%
Appearance (Light, 10 d): Light yellow solid
Purity (Light, 10 d): 99.43%

Molecule: CC/C=C(\O)C1C(=O)Oc2ccccc21.[Ca] (centres unmarked) [Example 6, (Z)-3-(1-hydroxybutenyl)benzofuran-2-one calcium salt]
Appearance (0 h): White solid
Purity (0 h): 99.42%
Appearance (High Humidity 75%, 10 d): White solid
Purity (High Humidity 75%, 10 d): 99.56%
Appearance (High Humidity 92.5%, 10 d): White solid
Purity (High Humidity 92.5%, 10 d): 99.44%
Appearance (High temperature 40°C, 10 d): White solid
Purity (High temperature 40°C, 10 d): 99.58%
Appearance (High temperature 60°C, 10 d): White solid
Purity (High temperature 60°C, 10 d): 99.68%
Appearance (Light, 10 d): White solid
Purity (Light, 10 d): 99.43%

Molecule: CCC/C(O)=C1/C(=O)Oc2ccccc21.[Mg] [Example 5, (Z)-3-(1-hydroxybutylidene)benzofuran-2-one magnesium salt]
Appearance (0 h): White solid
Purity (0 h): 99.67%
Appearance (High Humidity 75%, 10 d): White solid
Purity (High Humidity 75%, 10 d): 99.83%
Appearance (High Humidity 92.5%, 10 d): White solid
Purity (High Humidity 92.5%, 10 d): 99.79%
Appearance (High temperature 40°C, 10 d): White solid
Purity (High temperature 40°C, 10 d): 99.82%
Appearance (High temperature 60°C, 10 d): White solid
Purity (High temperature 60°C, 10 d): 99.58%
Appearance (Light, 10 d): White solid
Purity (Light, 10 d): 99.72%

Molecule: N[C@@H](Cc1ccc(O)c(O)c1)C(=O)O [Levodopa, reference compound]
Pole test results ([4]; positive control 20 mg/kg daily, four weeks, Study Endpoint): 8.76 ± 1.57 s
Pole test results ([4]; positive control 20 mg/kg group, Before Modeling): 9.40 ± 1.62 s
Grip Strength Test [5]: 272.61 ± 9.01 g
DOPA [6]: 1156.72±375.72^& ng/g
TH-Positive Fiber Content [7]: 536968.78±68050.46^&
TH-Positive Fiber Content ([7]; listed as levodopa): 536,968.78±68,050.46
TH-Positive Cell counts [8]: 31.50±4.14^&

Molecule: CCC/C(O)=C1/C(=O)Oc2ccccc21.NCCO [Example 8]
Appearance (0 h): White solid
Purity (0 h): 99.19%
Appearance (High Humidity 75%, 10 d): White solid
Purity (High Humidity 75%, 10 d): 99.71%
Appearance (High Humidity 92.5%, 10 d): White solid
Purity (High Humidity 92.5%, 10 d): 99.79%
Appearance (High temperature 40°C, 10 d): White solid
Purity (High temperature 40°C, 10 d): 99.75%
Appearance (High temperature 60°C, 10 d): White solid
Purity (High temperature 60°C, 10 d): 99.75%
Appearance (Light, 10 d): White solid
Purity (Light, 10 d): 99.78%

Impurities RRT1.41 (0 h): 0.10
Impurities RRT1.47 (0 h): 0.11
Impurities Total impurities (0 h): 0.21
Impurities RRT1.41 (High Humidity 75%, 10 d): 0.12
Impurities RRT1.47 (High Humidity 75%, 10 d): 0.10
Impurities Total impurities (High Humidity 75%, 10 d): 0.22
Impurities RRT1.41 (High temperature 60°C, 10 d): 0.14
Impurities RRT1.47 (High temperature 60°C, 10 d): 0.09
Impurities Total impurities (High temperature 60°C, 10 d): 0.23
Impurities RRT1.41 (Light, 10 d): 0.07
Impurities RRT1.47 (Light, 10 d): 0.09
Impurities Total impurities (Light, 10 d): 0.16
Molecule: (Z)-3-(1-hydroxybutenyl)benzofuran-2-one sodium salt [Example 2]

Molecule: (Z)-3-(1-hydroxybutenyl)benzofuran-2-one meglumine salt [Example 9]
Appearance (0 h): White solid
Purity (0 h): 99.53%
Appearance (High Humidity 75%, 10 d): White solid
Purity (High Humidity 75%, 10 d): 99.01%
Appearance (High Humidity 92.5%, 10 d): Yellow oily liquid
Purity (High Humidity 92.5%, 10 d): 98.62%
Appearance (High temperature 40°C, 10 d): White solid
Purity (High temperature 40°C, 10 d): 99.45%
Appearance (High temperature 60°C, 10 d): White solid
Purity (High temperature 60°C, 10 d): 98.04%
Appearance (Light, 10 d): White solid
Purity (Light, 10 d): 99.60%

Molecule: Nc1nc2ccc(OC(F)(F)F)cc2s1 [Riluzole, reference compound]
Rotarod performance ([9]; female mice, Dosing Schedule (weeks) 2): 269.8 ± 5.164 s
Rotarod performance ([9]; female mice, Dosing Schedule (weeks) 4): 258.8 ± 15.65 s
Rotarod performance ([9]; female mice, Dosing Schedule (weeks) 6): 275.3 ± 9.266 s
Rotarod performance ([9]; female mice, Dosing Schedule (weeks) 8): 272.3 ± 10.56 s
Rotarod performance ([9]; female mice, Dosing Schedule (weeks) 10): 238.4 ± 16.32 s
Rotarod performance ([9]; female mice, Dosing Schedule (weeks) 12): 252.3 ± 16.24 s
Rotarod performance ([9]; female mice, Dosing Schedule (weeks) 14): 270.6 ± 12.70 s
Rotarod performance ([9]; female mice, Dosing Schedule (weeks) 16): 255.9 ± 17.39 s
Rotarod performance ([9]; male mice, Dosing Schedule (weeks) 6): 250.8 ± 12.71 s
Rotarod performance ([9]; male mice, Dosing Schedule (weeks) 8): 236.4 ± 16.14 s
Rotarod performance ([9]; male mice, Dosing Schedule (weeks) 10): 234.0 ± 10.64 s
Rotarod performance ([9]; male mice, Dosing Schedule (weeks) 11): 215.6 ± 31.32 s
Rotarod performance ([9]; male mice, Dosing Schedule (weeks) 12): 202.4 ± 41.22 s
Rotarod performance ([9]; male mice, Dosing Schedule (weeks) 13): 135.32 ± 76.92 s
Muscle Tone ([10]; female mice, animal age 6 weeks): 145.2 ± 5.444 g
Muscle Tone ([10]; female mice, animal age 8 weeks): 177.8 ± 9.836 g
Muscle Tone ([10]; female mice, animal age 10 weeks): 133.6 ± 12.04 g
Muscle Tone ([10]; female mice, animal age 12 weeks): 161.5 ± 3.666 g
Muscle Tone ([10]; female mice, animal age 13 weeks): 146.4 ± 6.928 g
Muscle Tone ([10]; female mice, animal age 14 weeks): 143.1 ± 9.165 g
Muscle Tone ([10]; female mice, animal age 16 weeks): 149.0 ± 6.827 g
Muscle Tone ([10]; male mice, animal age 6 weeks): 144.0 ± 10.127 g
Muscle Tone ([10]; male mice, animal age 8 weeks): 152.4 ± 10.35 g
Muscle Tone ([10]; male mice, animal age 10 weeks): 150.5 ± 14.46 g
Muscle Tone ([10]; male mice, animal age 12 weeks): 145.4 ± 5.551 g
Muscle Tone ([10]; male mice, animal age 13 weeks): 147.8 ± 1.650 g
Muscle Tone ([10]; male mice, animal age 14 weeks): 129.2 ± 1.250 g

Appearance (0 h): White solid
Purity (0 h): 99.41%
Appearance (High Humidity 75%, 10 d): White solid
Purity (High Humidity 75%, 10 d): 99.34%
Appearance (High Humidity 92.5%, 10 d): White solid
Purity (High Humidity 92.5%, 10 d): 99.47%
Appearance (High temperature 40°C, 10 d): White solid
Purity (High temperature 40°C, 10 d): 99.66%
Appearance (High temperature 60°C, 10 d): White solid
Purity (High temperature 60°C, 10 d): 99.58%
Appearance (Light, 10 d): White solid
Purity (Light, 10 d): 99.41%
Molecule: (Z)-3-(1-hydroxybutenyl)benzofuran-2-one potassium salt [Example 4]
